Test results: patent USRE48461E1, “Modulation of androgen receptor expression” (Ionis Pharmaceuticals, Inc., priority 2012, dated 2021)

Experiments:
Assay type in all cases: cell-based, human
[1] = test system: AR mRNA; test: Time-course AR mRNA expression in C4-2B cells (8, 24, 48 hours); conditions: C4-2B cells
Protocol: C4-2B cells were plated at 1,000 cells per well in complete medium. […] After a treatment period of 8 hours, 24 hours, and 48 hours, AR expression was measured with primer probe set hAR-LTS00943.

[2] = test system: TMPRSS2 mRNA; test: Time-course TMPRSS2 expression in C4-2B cells
Protocol: C4-2B cells were plated at 1,000 cells per well in complete medium. […] ISIS 549148 was included as a negative control. […] After a treatment period of 8 hours, 24 hours, and 48 hours, AR expression was measured with primer probe set hAR-LTS00943. Results are presented in Tables 70-72 as percent expression of AR, relative to non-treated cells.
Expression analysis of prostate-specific antigen (PSA) and TMPRSS2 were also analyzed. Results are presented in Tables 73-75 as percent inhibition of PSA expression and Tables 76-78 as percent inhibition of TMPRSS2 expression, relative to non-treated cells.

[3] = test system: AR mRNA; test: AR RNA expression in LNCaP cells (complete, CSS, CSS+DHT medium); conditions: for Percent expression of AR in LNCaP cells cultured in CSS + DHT medium: CSS + DHT (1 nM) medium; for Percent expression of AR in LNCaP cells cultured in CSS + DHT medium / Percent expression of AR in LNCaP cells cultured in CSS medium: 48 hrs; for Percent expression of AR in LNCaP cells cultured in complete medium: 48 hours
Protocol: Cells were plated at 1,000 cells per well. […] After an incubation period of 48 hours, RNA levels of AR, PSA and TMPRSS2 were measured.
Cells were plated at 2,000 cells per well and cultured in phenol red-free RPMI supplemented with 5% charcoal stripped serum (Gibco) media for 16 hours. […] After an incubation period of 4 hrs, DHT was added to the medium to a final concentration of 1 nM as indicated. RNAs were collected 48 hrs later and levels of AR, PSA and TMPRSS2 were measured.

[4] = test system: PSA mRNA; test: PSA expression in C4-2 cells; conditions: 48 hrs; for Percent inhibition of PSA expression: C4-2 cells, CSS + DHT medium
Protocol: Cells were plated at 1,000 cells per well. […] After an incubation period of 48 hrs, RNA levels of AR, PSA and TMPRSS2 were measured.
Cells were plated at 2,000 cells per well and cultured in CSS media with 1 nM DHT. […] After an incubation period of 48 hrs, RNA levels of AR, PSA and TMPRSS2 were measured.

[5] = test system: AR mRNA; test: AR RNA expression in C4-2B cells (complete, CSS+DHT medium; Example 30); conditions: 48 hrs
Protocol: Cells were plated at 1,000 cells per well. […] ISIS 549148 was included as a negative control. […] After an incubation period of 48 hrs, RNA levels of AR, PSA and TMPRSS2 were measured.
Cells were plated at 2,000 cells per well and cultured in CSS media with 1 nM DHT. […] ISIS 549148 was included as a negative control. […] After an incubation period of 48 hrs, RNA levels of AR, PSA and TMPRSS2 were measured. In the absence of DHT, AR expression in C4-2 cells was 188%, PSA expression was 43% and TMPRSS2 expression was 27% compared to the untreated control.

[6] = test system: AR V7 variant mRNA; test: AR V7 variant RNA in 22RV1 cells; conditions: RNAiMax, 48 hrs
[7] = test system: 22RV1 cells; test: 22RV1 apoptosis (Caspase-glo 3/7); conditions: 22RV1 cells, 72 hours
Protocol: After a treatment period of 72 hours in complete medium or CSS+DHT medium, apoptosis of the cancer cells was measured with Caspase-glo 3/7 assay kit (Promega). Results are presented in Tables 131 and 132 as percent apoptosis of the cells, relative to non-treated cells.

Sequence: GGCTACTACGCCGTCA (3-10-3 (S)-cEt gapmer, chemistry not fully specified) [ISIS 549148, reference compound]
- Percent expression of AR compared to the control group in 8 hours ([1]; 0.04 μM): 116%
- Percent expression of AR compared to the control group in 24 hours ([1]; 0.04 μM): 87%
- Percent expression of AR compared to the control group in 48 hours ([1]; 0.04 μM): 98%
- Percent expression of AR compared to the control group in 8 hours ([1]; 0.2 μM): 105%
- Percent expression of AR compared to the control group in 24 hours ([1]; 0.2 μM): 85%
- Percent expression of AR compared to the control group in 48 hours ([1]; 0.2 μM): 90%
- Percent expression of AR compared to the control group in 24 hours ([1]; 1 μM): 87%
- Percent expression of AR compared to the control group in 48 hours ([1]; 1 μM): 87%
- Percent expression of AR compared to the control group in 8 hours ([1]; 5.0 μM): 110%
- Percent expression of AR compared to the control group in 24 hours ([1]; 5.0 μM): 107%
- Percent expression of AR compared to the control group in 48 hours ([1]; 5.0 μM): 99%
- Percent inhibition of TMPRSS2 expression compared to the control group in 8 hours ([2]; 0.04 μM): 5%
- Percent inhibition of TMPRSS2 expression compared to the control group in 24 hours ([2]; 0.04 μM): 29%
- Percent inhibition of TMPRSS2 expression compared to the control group in 48 hours ([2]; 0.04 μM): 0%
- Percent inhibition of TMPRSS2 expression compared to the control group in 8 hours ([2]; 0.2 μM): 0%
- Percent inhibition of TMPRSS2 expression compared to the control group in 24 hours ([2]; 0.2 μM): 10%
- Percent inhibition of TMPRSS2 expression compared to the control group in 48 hours ([2]; 0.2 μM): 4%
- Percent inhibition of TMPRSS2 expression compared to the control group in 8 hours ([2]; 1 μM): 0%
- Percent inhibition of TMPRSS2 expression compared to the control group in 24 hours ([2]; 1 μM): 29%
- Percent inhibition of TMPRSS2 expression compared to the control group in 48 hours ([2]; 1 μM): 0%
- Percent inhibition of TMPRSS2 expression compared to the control group in 8 hours ([2]; 5.0 μM): 0%
- Percent inhibition of TMPRSS2 expression compared to the control group in 24 hours ([2]; 5.0 μM): 10%
- Percent inhibition of TMPRSS2 expression compared to the control group in 48 hours ([2]; 5.0 μM): 0%
- Percent expression of AR in LNCaP cells cultured in CSS + DHT medium ([3]; 0.04 μM): 98%
- Percent expression of AR in LNCaP cells cultured in CSS + DHT medium ([3]; 0.2 μM): 102%
- Percent expression of AR in LNCaP cells cultured in CSS + DHT medium ([3]; 1 μM): 96%
- Percent expression of AR in LNCaP cells cultured in CSS medium ([3]; 0.04 μM): 106%
- Percent expression of AR in LNCaP cells cultured in CSS medium ([3]; 0.2 μM): 97%
- Percent expression of AR in LNCaP cells cultured in CSS medium ([3]; 1 μM): 96%
- Percent expression of AR in LNCaP cells cultured in CSS medium ([3]; 5.0 μM): 104%
- Percent expression of AR in LNCaP cells cultured in complete medium ([3]; 0.04 μM): 102%
- Percent expression of AR in LNCaP cells cultured in complete medium ([3]; 1 μM): 109%
- Percent expression of AR in LNCaP cells cultured in complete medium ([3]; 5.0 μM): 109%
- Percent inhibition of PSA expression ([4]; 0.04 μM): 0%
- Percent inhibition of PSA expression ([4]; 0.2 μM): 8%
- Percent inhibition of PSA expression ([4]; 1 μM): 21%
- Percent inhibition of PSA expression ([4]; 5.0 μM): 22%
- Percent inhibition of PSA expression in C4-2 cells cultured in complete medium ([4]; 0.04 μM): 15%
- Percent inhibition of PSA expression in C4-2 cells cultured in complete medium ([4]; 0.2 μM): 24%
- Percent inhibition of PSA expression in C4-2 cells cultured in complete medium ([4]; 1 μM): 24%
- Percent inhibition of PSA expression in C4-2 cells cultured in complete medium ([4]; 5.0 μM): 23%
- Percent expression of AR ([5]; CSS + DHT medium, 0.04 μM): 91%
- Percent expression of AR ([5]; CSS + DHT medium, 0.2 μM): 104%
- Percent expression of AR ([5]; CSS + DHT medium, 1 μM): 101%
- Percent expression of AR ([5]; CSS + DHT medium, 5.0 μM): 95%
- Percent expression of AR ([5]; complete medium, 0.04 μM): 101%
- Percent expression of AR ([5]; complete medium, 0.2 μM): 91%
- Percent expression of AR ([5]; complete medium, 1 μM): 88%
- Percent expression of AR ([5]; complete medium, 5.0 μM): 87%
- Percent inhibition of AR V7 variant ([6]; CSS + DHT medium, 1.34 nM): 19%
- Percent inhibition of AR V7 variant ([6]; CSS + DHT medium, 4.0 nM): 19%
- Percent inhibition of AR V7 variant ([6]; CSS + DHT medium, 13.4 nM): 32%
- Percent inhibition of AR V7 variant ([6]; complete medium, 1.34 nM): 0%
- Percent inhibition of AR V7 variant ([6]; complete medium, 4.0 nM): 0%
- Percent inhibition of AR V7 variant ([6]; complete medium, 13.4 nM): 22%
- Percent inhibition of AR V7 variant ([6]; complete medium, 40 nM): 26%
- Apoptosis (% untreated control) ([7]; CSS + DHT medium, 1.34 nM): 113 % untreated control
- Apoptosis (% untreated control) ([7]; CSS + DHT medium, 4.0 nM): 94 % untreated control
- Apoptosis (% untreated control) ([7]; CSS + DHT medium, 13.4 nM): 102 % untreated control
- Apoptosis (% untreated control) ([7]; CSS + DHT medium, 40 nM): 108 % untreated control
- Apoptosis (% untreated control) ([7]; complete medium, 1.34 nM): 81 % untreated control
- Apoptosis (% untreated control) ([7]; complete medium, 4.0 nM): 76 % untreated control
- Apoptosis (% untreated control) ([7]; complete medium, 13.4 nM): 72 % untreated control
- Apoptosis (% untreated control) ([7]; complete medium, 40 nM): 123 % untreated control
